Reference: patent US4145419A, “Novel imidazobenzoxazines” (Roussel Uclaf, priority 1976, dated 1979)
Where two headings read alike, the source gives them in different places.

System: passive cutaneous anaphylaxis
Test: Passive Cutaneous Anaphylaxis (PCA) in Rats
Assay type: in vivo
Details: Rattus norvegicus, dosed immediately prior to intravenous antigen challenge, read-out: ED50 (dose of drug giving 50% inhibition)
Description: Passive Cutaneous Anaphylaxis (PCA) in Rats
Cutaneous anaphylaxis can be induced in rats by intradermal (ID) sensitization with antiserum followed three days later by systemic challenge with antigen. Evans blue dye injected with the antigen is used as a marker to assess the severity of the local response. Anti-allergic drugs inhibit this reaction. This method has been described by OVARY (1962) "Passive Cutaneous Anaphylaxis in Allergology" Page 358-367 Ed. Brown: Pergamon Press:-male rats weighing 180-220 grams are used in groups of seven.
Preparation of Antigen for Sensitization (Alum precipitated ovalbumen)
1. Wash 120 grams of Al(OH)3 gel in 140 ml of saline (use of a macerater facilitates mixing).
2. Centrifuge at 3,000 r.p.m. for about 10 minutes.
3. Resuspend the precipitate with 300 ml of albumen egg powder (1.3 mg/ml) in saline and allow to stand for 30 minutes.
4. Centrifuge at 3,000 r.p.m. for 10 minutes.
5. Weigh the wet precipitate and to each gram weight add 1 ml of saline. Store in refrigerator (Quantity sufficient for 60 rats for a 3 day sensitization program).
Preparation of Antiserum (anti-ovalbumen)
1 ml of the alum precipitated ovalbumen was injected subcutaneously into rats weighing 180-200 grams on days 0,2,4. The rats were bled on day 14 either by cardiac puncture or via the dorsal abdominal aorta. Equal quantities of serum from each animal were pooled and thoroughly mixed and 2 ml aliquots were stored at -20° C. in plastic tubes.
The antiserum for sensitization was diluted so that an ID injection of 0.1 ml into control animals would give an average score of a single spot of between 2.0-3.5 using a 4 point scoring system.
(A) SENSITIZATION: The rats were anaesthetized with Nembutal (40-60 mg/kg i.p.) and were then sensitized by four ID injections (0.1 ml each) on their shaved backs. The animals were then left for a period of three days to develop sensitization.
(B) CHALLENGE: The sensitized rats were dosed orally or intraveneously with the drug immediately prior to intraveneous challage via the superficial penile vein with 1 ml of an antigen/Evans blue mixture (1 mg albumen egg powder in 0.5 ml saline plus 0.5 ml of 1% Evans blue). The injection were speeded up by using an automatic 1 ml self-filling glass syringe. The "challenged" rats were killed after 30 minutes, (usually pithed) and their skin on the dorsal surface was removed. The degree and area of blueing, proportional to the anaphylactic reaction was assessed on a four point scoring system.
1. Total scores for sites 1,2,3 and 4 = X
2. mean value of X for each group = X
3. x t = X for test group X c = X for control group
4. % inhibition = X c - X t/X c X 100/1
5. ed50 = dose of drug giving 50% inhibition.
ED50 values for the compounds tested in the passive cutaneous anaphylaxis screen (in rats) are as follows: […]

SMILES | ED50 (po, P.O.) [mg/kg] | ED50 (I.V.) [mg/kg]
COC(=O)c1cn2c(n1)COc1ccccc1-2 [Example 1, methyl 4H-imidazo-[2,1-c][1,4]-benzoxazine-2-carboxylate] | 10.8 | –
O=C(O)c1cn2c(n1)COc1ccccc1-2 [Example 2, 4H-imidazo-[2,1-c][1,4]-benzoxazine-2-carboxylic acid] | 2.88 | 1.95
O=C(OCCN1CCOCC1)c1cn2c(n1)COc1ccccc1-2 [Example 5, 2-morpholinoethyl 4H-imidazo-[2,1-c][1,4]-benzoxazine-2-carboxylate] | 10.7 | 1.75
O=C(O)c1cn2c(n1)COc1ccc([N+](=O)[O-])cc1-2 [Example 10, 8-nitro-4H-imidazo-[2,1-c][1,4]-benzoxazine-2-carboxylic acid] | – | 2.2
CC(=O)Nc1ccc2c(c1)-n1cc(C(=O)O)nc1CO2 [Example 11, 8-acetamido-4H-imidazo-[2,1-c][1,4]-benzoxazine-2-carboxylic acid] | > 10 | 0.073
O=C(O)C(=O)Nc1ccc2c(c1)-n1cc(C(=O)O)nc1CO2 [Example 12, 8-oxalamino-4H-imidazo-[2,1-c][1,4]-benzoxazine-2-carboxylic acid] | 3.85 | –
